# Results published in patent US20210395721A1, “METHODS TO IMPROVE POTENCY OF ELECTROPORATION” (Codiak BioSciences, Inc., priority 2018, published 2021).
# Assays:
# [1] = Anion exchange chromatography (AEX) of siRNA before and after electroporation; assay type: physicochemical; conditions: for effect of excipient on AEX profile of XD-08318 after electroporation: 5 ms per pulse
# Procedure: Anion exchange chromatography (AEX) was carried out on an Agilent 1100 HPLC using a […] PA200 column (Thermo Scientific). The column was equilibrated in 50 mM Tris pH 7.4, and 20 ng of each siRNA sample was prepared in a 100 μl HPLC vial for injection. The sample was injected and subjected to a gradient of 50 mM Tris pH 7.4 (mobile phase A) and 50 mM Tris, 1 M NaCl, pH 7.4 (mobile phase B) according to Tables 1 and 2, below. Electroporation is a common method for introducing nucleic acids into cells and other lipid structures such as exosomes. As an analytical method, siRNAs were analyzed by anion exchange chromatography (AEX), as described above, before and after electroporation. […] XD-08318 is a modified siRNA that contains a 5' terminal deoxyribose residue on the antisense strand, a combination of natural ribose and synthetic 2'-O-methyl ribose residues, and phosphorothioate linkages at the 3' ends of each strand (FIG. 2). Synthetic RNA XD-08318 was electroporated in the presence of several free radical scavengers and reducing agents as excipients.
# [2] = test system: KRAS G12D transcript; experiment: KRAS G12D transcript knockdown in Panc-1 cells; assay type: cell-based, human; conditions: FIG. 14, samples #9, #10 vs #4-8
# Procedure: XD-08318 was loaded into exosomes by electroporation in the presence or absence of free radical scavengers. As a control, XD-08318 was transfected into the human pancreatic cancer cell line Panc-1, which is heterozygous for the G12D mutant transcript of KRAS. […] As controls, in the absence of any transfection reagent, Panc-1 cells were incubated with a mixture of the siRNA and exosomes without electroporation (mix), siRNA only, exosomes alone (EV only), or in the presence of siRNA and exosomes that were electroporated individually (si EP+EV EP Mix). […] Next, XD-08318 was loaded into exosomes by electroporation at pulse code 42 (sample 4) and incubated with cells, resulting in a modest ˜30% repression of the target transcript.
# [3] = MaxCyte strong pulse code 66 (high field strength, high frequency)
"effect of excipient on AEX profile of XD-08318 after electroporation ([1]; Gene Pulser XCell (Bio-Rad), 800 V, 2 pulses)","effect of excipient on AEX spectral shift of XD-08318 after electroporation [1, 3]","effect of excipient on AEX profile of XD-08318 after electroporation ([1]; Neon Transfection System, 2000 V, 8 pulses)","effect of excipient on AEX spectral shift of XD-08318 after electroporation ([1]; MaxCyte intermediate pulse code 63 (high field strength, low frequency))",Compound,"knock-down by modified siRNA electroporated into exosomes in presence of the scavenger, compared to absence of free radical scavengers [2]"
prevent a change in the AEX profile,prevented the spectral shift,prevent a change in the AEX profile,,N[C@@H](CCC(=O)N[C@@H](CS)C(=O)NCC(=O)O)C(=O)O [Glutathione],
,prevented the spectral shift,,,CSCC[C@H](N)C(=O)O [L-Methionine],increased knock-down
,prevented the spectral shift,,prevented the spectral shift,N[C@@H](CS)C(=O)O [L-cysteine],
